The NIST ThermoML archive (doi:10.1016/j.tca.2016.07.019)

Experiment: wn = mass fraction of the nth substance listed
Conditions: 100 kPa, Liquid

O=C([O-])[C@@H]1CCCN1.[K+] [potassium L-prolinate] + O
mass density [kg/m3]
Conditions	293.15 K	303.15 K	313.15 K	323.15 K
w1 = 0.01	1007.1	1004.3	1001.6	997.9
w1 = 0.04	1023.4	1019.6	1016.1	1009.5
w1 = 0.1	1047.2	1042.8	1037.9	1026.7
